According to article PMC10206591, “Identification of small molecules capable of enhancing viral membrane fusion” (Virology Journal, 2023):
Where “and” joins values, the source holds several entries; their conditions need not be identical. Equal entries are not always repeated.

Tests used:
[1] = Cell viability, Cell-Titer Glo (ATP levels), Hek 293T; format: cell-based; conditions: human; for CC50 / CC90: 48 h
Method: (§1) The toxicity of the compounds was evaluated with Cell-Titer Glo (Promega) following the manufacturer’s indications. Briefly, cells were seeded (~ 1 × 10^4 cells/plate) in an opaque white 96-well plate and treated with the appropriate compound at the indicated concentration for 48 h. Next, 100 µl of CellTiter-Glo® reagent was added and let the luminescence signal stabilizes for 10 min. The luminescence was recorded on a VictorX multi-plate reader (Perking Elmer, Waltham, MA, USA).
(§2) Fig. 6 Toxicity of hit compounds. A, B The toxicity in Hek 293T and Vero E6 cells (A and B, respectively) was analyzed after incubating the compounds at the indicated concentration for 48 h. Toxicity was analyzed by measuring ATP levels using the Cell-Titer Glo assay (Promega) following the manufacturer’s indications. Dots represent the average of at least three independent experiments. C The CC10, CC50, and CC90 values were calculated with the data shown in panels A and B TEXT PRINTED IN THE PICTURE: (C) Latanoprost: Hek293T CC10 (μM): 16.2; Hek293T CC50 (μM): 63.9; Hek293T CC90 (μM): 270; Vero E6 CC10 (μM): 76.9; Vero E6 CC50 (μM): 124; Vero E6 CC90 (μM): 171 | (C) Diperodon: Hek293T CC10 (μM): 14.2; Hek293T CC50 (μM): 41; Hek293T CC90 (μM): 98.3; Vero E6 CC10 (μM): 24; Vero E6 CC50 (μM): 88; Vero E6 CC90 (μM): 153 | (C) Ethynylestradiol: Hek293T CC10 (μM): 11.8; Hek293T CC50 (μM): 49.9; Hek293T CC90 (μM): 169.9; Vero E6 CC10 (μM): 13.6; Vero E6 CC50 (μM): 96.6; Vero E6 CC90 (μM): 224 | (C) Simvastatin: Hek293T CC10 (μM): 8.0; Hek293T CC50 (μM): 34.2; Hek293T CC90 (μM): 125.8; Vero E6 CC10 (μM): 3.11; Vero E6 CC50 (μM): 6.02; Vero E6 CC90 (μM): 61.2 | (C) Rabeprazol: Hek293T CC10 (μM): 14.3; Hek293T CC50 (μM): 38.1; Hek293T CC90 (μM): 83.6; Vero E6 CC10 (μM): 51.6; Vero E6 CC50 (μM): 122.8; Vero E6 CC90 (μM): 194 | (C) Ethaverine: Hek293T CC10 (μM): 9.7; Hek293T CC50 (μM): 43.8; Hek293T CC90 (μM): 120.7; Vero E6 CC10 (μM): 45; Vero E6 CC50 (μM): 119.8; Vero E6 CC90 (μM): 194.7

Hek 293T cells [2] = test: as above; format: cell-based; conditions: 48 h, Fig. 6C
Method: as §1, §2

[3] = Cell viability, Cell-Titer Glo (ATP levels), Vero E6; format: cell-based; conditions: African green monkey, Fig. 6C; for CC50 / CC90: 48 h
Method: as §1, §2

Vero E6 cells = test: as above; format: cell-based; conditions: 48 h, Fig. 6C
Method: as §1, §2

[4] = tested on: Nipah virus membrane fusion; format: cell-based; conditions: Hek 293T, NiV F and G, 48 h
SARS-CoV-2 = format: cell-based
IAV/WSN/33 = format: cell-based, Influenza A virus
[5] = tested on: SARS-CoV-2 S-mediated membrane fusion
[6] = tested on: SARS-CoV-2 S-mediated membrane fusion in the presence of TMPRSS2
Hek 293T cells [7] = test: Cell viability, Cell-Titer Glo (ATP levels), Hek 293T; format: cell-based; conditions: Hek 293T transfected with TMPRSS2 or eYFP, Fig. S2
[8] = Table 1, Hek 293T, read-out: CC50
[9] = Fig. 6C, read-out: Hek293T CC50
[10] = Fig. 6C, read-out: Hek293T CC90

| SMILES | CC50 [1, 8] [µM] | CC50 [1, 9] [µM] | CC90 [1, 10] [µM] | Hek293T CC10 (Hek 293T cells [2]) [µM] | CC50 [3] [µM] | CC90 [3] [µM] | Vero E6 CC10 (Vero E6 cells) [µM] | effect on NiV-induced membrane fusion (in words) [4] | effect on SARS-CoV-2 viral titers (in words) (SARS-CoV-2) | effect on IAV titers (in words) (IAV/WSN/33) | Activity index (Fusion % at CC50/CC50), NO TMPRSS2 [5] | Fusion % at CC50, NO TMPRSS2 [5] | increase in viral-induced membrane fusion (in words) [5] | Activity index (Fusion % at CC50/CC50), TMPRSS2 [6] | Fusion % at CC50, TMPRSS2 [6] | Z-score [5] | further results |
| --- | --- | --- | --- | --- | --- | --- | --- | --- | --- | --- | --- | --- | --- | --- | --- | --- | --- |
| C#C[C@]1(O)CC[C@H]2[C@@H]3CCc4cc(O)ccc4[C@H]3CC[C@@]21C [Ethynylestradiol] | 49.9 | 49.9 | 170 | 11.8 | 96.6 | 224 | 13.6 | enhance viral-mediated membrane fusion in a mild dose-dependent manner | increased viral titers | increases IAV titers by approximately one log | 3,25 | 162,00% | stronger inducers | 6,27 | 312,60% |  | SARS-CoV-2 titer, Average (SARS-CoV-2): 2.6x10^6 pfu/mL and 3.6x10^6 pfu/mL and 5.0x10^6 pfu/mL; toxicity in the presence of TMPRSS2 (in words) (Hek 293T cells [7]): compound toxicity was not affected by the presence of the cellular protease |
| O=C(Nc1ccccc1)OCC(CN1CCCCC1)OC(=O)Nc1ccccc1 (centres unmarked) [Diperodon] | 41 | 41 | 98.3 | 14.2 | 88 | 153 | 24 |  |  |  | 3,03 | 123,98% |  | 3,39 | 138,77% |  |  |
| CCC(C)(C)C(=O)O[C@H]1C[C@@H](C)C=C2C=C[C@H](C)[C@H](CC[C@@H]3C[C@@H](O)CC(=O)O3)[C@H]21 [Simvastatin] |  |  |  | 8.0 |  |  | 3.11 |  |  |  | 5,03 | 172,00% | stronger inducers | 4,79 | 163,57% | 1,72 | CC50 at 48 h [1, 9]: 34.2 µM; CC90 at 48 h [1, 10]: 126 µM; CC50 at 48 h [1, 8]: 34.2 µM; CC50 at 48 h [3]: ~6 µM; CC90 at 48 h [3]: 61.2 µM; CC50 (Vero E6 cells): 6.02 µM |
| CCOc1ccc(Cc2nccc3cc(OCC)c(OCC)cc23)cc1OCC [Ethaverine] | 43.8 | 43.8 | 121 | 9.7 | 120 | 195 | 45 | enhance viral-mediated membrane fusion in a mild dose-dependent manner | did not increase or accelerate the growth | did not increase viral titers | 2,86 | 125,39% |  | 9,56 | 419,22% |  |  |
| COCCCOc1ccnc(C[S+]([O-])c2nc3ccccc3[nH]2)c1C (centres unmarked) [Rabeprazol] | 38.1 | 38.1 | 83.6 | 14.3 | 123 | 194 | 51.6 | enhance viral-mediated membrane fusion in a mild dose-dependent manner | increased viral titers | did not increase viral titers | 4,70 | 179,16% |  | 6,39 | 243,51% |  | SARS-CoV-2 titer, Average (SARS-CoV-2): 3.2x10^6 pfu/mL and 4.2x10^6 pfu/mL and 6.1x10^6 pfu/mL |
| CC(C)OC(=O)CCC/C=C\C[C@@H]1[C@@H](CC[C@@H](O)CCc2ccccc2)[C@H](O)C[C@@H]1O [Latanoprost] | 63.9 | 63.9 | 270 | 16.2 | 124 | 171 | 76.9 |  |  |  | 1,11 | 70,98% | stronger inducers | 2,39 | 152,75% |  |  |
| O=C1CN(/N=C/c2ccc([N+](=O)[O-])o2)C(=O)N1 [Nitrofurantoin] |  |  |  |  |  |  |  |  |  |  |  |  |  |  |  | 2,23 |  |
| CC(=O)Nc1ccc(OCC(O)CNC(C)C)cc1 (centres unmarked) [Practolol] |  |  |  |  |  |  |  |  |  |  |  |  |  |  |  | 1,57 |  |
| CS(=O)(=O)c1ccc([C@@H](O)[C@@H](CO)NC(=O)C(Cl)Cl)cc1 [Thiamphenicol] |  |  |  |  |  |  |  |  |  |  |  |  |  |  |  | 2,42 |  |
